Values quoted from earlier work, collected in patent US20240366601A1, “METHODS FOR TREATING TRAUMATIC BRAIN INJURY” (The Regents of the University of California, priority 2021, published 2024).

Columns and labels:
[1] = FDA-approved doses for cancer treatments; list continues over the following table lines
[2] = molecular target: CDK4 (Homo sapiens, UniProt P11802); details: for CDK4; read-out: in vitro IC50 (nM) in cell-free assays
CDK4, sequence (P11802 whole entry): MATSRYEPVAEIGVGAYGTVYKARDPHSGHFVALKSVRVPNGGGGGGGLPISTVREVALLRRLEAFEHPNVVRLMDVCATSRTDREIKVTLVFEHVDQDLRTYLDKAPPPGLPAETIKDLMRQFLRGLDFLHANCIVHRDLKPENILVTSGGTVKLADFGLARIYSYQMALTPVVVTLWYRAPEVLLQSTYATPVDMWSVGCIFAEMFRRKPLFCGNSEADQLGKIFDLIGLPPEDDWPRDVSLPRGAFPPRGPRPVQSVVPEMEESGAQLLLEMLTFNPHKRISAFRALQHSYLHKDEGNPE
CDK4, sequence (P24385 whole entry partner): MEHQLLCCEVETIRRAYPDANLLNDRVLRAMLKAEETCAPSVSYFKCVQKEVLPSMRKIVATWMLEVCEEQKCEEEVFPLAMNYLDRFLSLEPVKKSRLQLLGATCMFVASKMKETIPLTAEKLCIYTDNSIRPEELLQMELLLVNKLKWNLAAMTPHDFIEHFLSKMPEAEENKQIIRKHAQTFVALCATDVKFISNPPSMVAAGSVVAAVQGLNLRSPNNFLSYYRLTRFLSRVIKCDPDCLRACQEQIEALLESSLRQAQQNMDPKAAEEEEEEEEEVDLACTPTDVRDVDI

Row | IC50 [2] [nM] | SMILES | Common Side effects at FDA-approved doses (Medline Plus) [1]
1 | – | CN(C)C(=O)c1cc2cnc(Nc3ccc(N4CCNCC4)cn3)nc2n1C1CCCC1 [ribociclib] | diarrhea; constipation; stomach pain; headache; hair loss; back pain; itching;
2 | 3.9 | CN1CCN(c2ccc(Nc3ncc4cc(C#N)c(=O)n(C5CCCC5)c4n3)cc2)CC1 [ON123300] | –
3 | – | CCN1CCN(Cc2ccc(Nc3ncc(F)c(-c4cc(F)c5nc(C)n(C(C)C)c5c4)n3)nc2)CC1 [abemaciclib] | diarrhea, nausea, abdominal pain, infections, tiredness, anemia, leukopenia,
